Data published in US11014908B2, “Chemical compounds” (Pfizer Inc., priority 2018, dated 2021).

Assays:
[1] = molecular target: T1, Hb in human whole blood (Homo sapiens, UniProt P68871+P69905); test: Whole blood oxygen affinity assay (Hemox analyzer), human blood; details: 1 mM compound, 1 hour at 25 C, relative to DMSO
T1 construct: measured in human, dog, and mouse whole blood; from tissue; host or cells: human whole blood
Description: Whole Blood Oxygen Affinity Assay
Oxygen affinity is a marker of the ability of Hb to bind and release oxygen in solution. It can be determined in whole blood by measuring the percentage of oxygenated and deoxygenated Hb present at a given oxygen concentration. Oxygen affinity is expressed as the p50, the partial pressure of oxygen at which 50% of the Hb in solution has oxygen bound, or the p20, the partial pressure of oxygen at which 20% of the Hb in solution has oxygen bound.
To determine the effects of compounds of the invention on oxygen affinity the p50 and p20 were measured in human, dog, and mouse whole blood using a Hemeox Analyzer (TCS Scientific). The blood was spiked with a compound of the invention to a concentration of 1 mM and incubated for 1 hour at 25 C with constant rotation. A concentration of 1 mM of compound was selected to approximate 20% hemoglobin occupancy in whole blood. Controls with the same concentration of DMSO, but no compound were incubated in the same way at the same time. Following incubation, samples were immediately assayed for oxygen affinity using the Hemox analyzer. Fifty μL of blood sample was diluted into 5 mL of hemox buffer (TCS Scientific), which had been pre-incubated to 37 C. Following dilution, samples were loaded into the analysis chamber, and fully oxygenated using compressed air. Once samples had reached an pO2 of >150 torr, the measurement was initiated by switching to N2, and the percent oxyhemoglobin as a function of partial pressure was recorded. The p20 and p50 of each sample were recorded from the instrument readout. Data are reported as the percent (%) change relative to DMSO according to the following calculations: […]

[2] = molecular target: T2, HbS (Homo sapiens, UniProt P68871+P69905, E7V); test: 'R'-'T' assay (conversion of oxy HbS to deoxy HbS under deoxygenating conditions); format: biochemical; details: 50% inhibition of HbS 'R'-'T' conversion; 3 uM HbS, <1% O2
T2 construct: HbS was obtained from the blood of homozygous S/S patients; from tissue; host or cells: red blood cells of homozygous S/S patients
How it was run: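 Oxy HbS diluted to 3 µM in 100 mM potassium phosphate pH 7.4, incubated 1 h at room temperature with compound, then held under <1% O2 for 2 h. Conversion followed by background-corrected 415/430 nm absorbance ratio at 0, 90 and 120 min; percent effect normalized to tucaresol, IC50 from concentration series.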

[3] = molecular target: T3, purified sickle cell hemoglobin (HbS) (Homo sapiens, UniProt P68871+P69905, E7V); test: Binding affinity to purified HbS by Surface Plasmon Resonance (SPR); details: crosslinked biotinylated HbS, 1:1 binding model
T3 construct: HbS was obtained from the blood of homozygous S/S patients; from tissue; host or cells: red blood cells of homozygous S/S patients
How it was run: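 Patient-derived HbS, purified and crosslinked between beta subunits (Lys82-Lys82), biotinylated and captured on streptavidin sensor at 4000–5000 RU. Running buffer 100 mM potassium phosphate pH 7.5, 1 mM EDTA, 0.1 mg/mL BSA, 1% DMSO; 2 min association, ≥5 min dissociation, ≥4 concentrations; Kd from 1:1 model fit.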

[4] = test system: Townes SCD mice; test: Chronic dosing study (BID, 15 days) in Townes SCD mice; format: in vivo, mouse; details: 100 mg/kg BID for 15 days, n=4-5, Townes SCD mice, vs vehicle
Description: Following 15 days of dosing, blood samples were collected from all animals to run in the Hemeox analyzer to generate oxygen affinity curves, complete blood analysis was performed using Idexx hematology Analyzer, and cell sickling assessed as described before. Soluble Vascular Adhesion Molecule 1 levels (sVCAM1) were assessed by Enzyme linked immunosorbent assay (ELISA) from R&D systems. Results are presented below in Tables 7, 8 and 9.

[5] = Single dose study in sickle Townes mice: exposure in whole blood; format: in vivo; details: male, Townes (sickle cell disease model), mouse, SCD mice, n=3
Description: In Vivo Studies Mouse Model
The effect of the compounds of the invention was evaluated in-male sickle Townes mice in a single dose study. Compounds of the invention were administered in amounts set out in Tables 7, 8 and 9 that follow by oral gavage. Control mice received vehicle. Blood (50 μL) was drawn at 0.5 h, 1 h, 4 h, 7 h, 10 h, and 24 h. To measure exposure in whole blood, 20 μL sample was used. Blood drawn at 0.5 h was also evaluated for cell sickling.

| Compound | Reduction in p20 (%) Human [1] [%] | Reduction in p50 (%) Human [1] [%] | IC50 [2] [nM] | Kd [3] [nM] | other results |
| --- | --- | --- | --- | --- | --- |
| C[C@H](Oc1cc2cc(C(N)=O)ccc2nc1N)c1cc2[nH]ncc2cc1-n1cccn1 [Example 61, 2-amino-3-{(1S)-1-[5-(1H-pyrazol-1-yl)-1H-indazol-6-yl]ethoxy}quinoline-6-carboxamide] | 14 ± 8 | 1 ± 6 | 5450 | 36 | – |
| C[C@H](Oc1cc2cc(C(N)=O)ccc2nc1N)c1ncc(F)cc1-n1cccn1 [Example 27, 2-amino-3-{(1S)-1-[5-fluoro-3-(1H-pyrazol-1-yl)pyridin-2-yl]ethoxy}quinoline-6-carboxamide] | 70 ± 4 | 26 ± 1 | 5360 | 183 | Hb, Change (increase) [4]: 54.4 ± 8.7% increase; Hematocrit, Change (increase) [4]: 42.0 ± 12.7% increase; RBC sickling, Change (decrease) [4]: 19.2 ± 5.4% decrease; RBCs, Change (increase) [4]: 51.9 ± 8.3% increase; Reticulocytes, Change (decrease) [4]: 18.4 ± 5.5% decrease; p20, Change (decrease) [4]: 10.8 ± 3.8% decrease; p50, Change (decrease) [4]: 7.89 ± 3.36% decrease; concentration at 0.5 h ([5]; single dose 5 mg/kg oral gavage): 7.4 µM; concentration at 0.5 h ([5]; single dose 50 mg/kg oral gavage): 208 µM |
| C[C@H](Oc1cc2cc(F)ccc2nc1N)c1cc(C(=O)NCC(=O)O)ccc1-n1cccn1 [Example 10, N-[3-{(1S)-1-[(2-amino-6-fluoroquinolin-3-yl)oxy]ethyl}-4-(1H-pyrazol-1-yl)benzoyl]glycine] | – | – | 5860 | 211 | – |
| C[C@H](Oc1cc2cc(Br)ccc2nc1N)c1cc(C(N)=O)ccc1-n1cccn1 (single isomer, unassigned) [Example 3] | – | – | 5060 | 67 | – |

Further compounds by falling IC50 [2], results first:

| Reduction in p20 (%) Human [1] [%] | Reduction in p50 (%) Human [1] [%] | IC50 [2] [nM] | Kd [3] [nM] | Compound | other results |
| --- | --- | --- | --- | --- | --- |
| 40 ± 4 | 7 ± 3 | 4920 | 100 | C[C@H](Oc1cc2cc(F)ccc2nc1N)c1cc(C(=O)O)ccc1-n1cccn1 [Example 4, 3-{(1S)-1-[(2-amino-6-fluoroquinolin-3-yl)oxy]ethyl}-4-(1H-pyrazol-1-yl)benzoic Acid] | – |
| – | – | 4720 | 87 | C[C@H](Oc1cc2cc(F)ccc2nc1N)c1cc(C(=O)O)c(F)cc1-n1cccn1 [Example 9, 5-{(1S)-1-[(2-amino-6-fluoroquinolin-3-yl)oxy]ethyl}-2-fluoro-4-(1H-pyrazol-1-yl)benzoic Acid] | – |
| – | – | 3930 | 68 | C[C@H](Oc1cc2cc(C(N)=O)cc(F)c2nc1N)c1ncc(F)cc1-n1cccn1 [Example 35, 2-amino-8-fluoro-3-{(1S)-1-[5-fluoro-3-(1H-pyrazol-1-yl)pyridin-2-yl]ethoxy}quinoline-6-carboxamide] | – |
